According to US9463214B2, “Antibiotic peptide derived from helicobacter pylori ribosomal protein L1 and uses thereof” (INDUSTRY-ACADEMIC COOPERATION FOUNDATION, CHOSUN UNIVERSITY, priority 2013, dated 2016):
Values joined by “and” are separate entries in the source; they are usually repeats but may differ in a detail not shown here. Equal entries are not always repeated. Where two headings read alike, the source gives them in different places. Ends that are not written are not given here.

Legend:
E-coli CCARM 1229 = assay: microbe, parasite or virus in culture; type: cell-based, Escherichia coli; conditions: E-coli CCARM 1229, antibiotic-resistant
Source text: (§1) To investigate the antibacterial activity of the HPA3P2 peptide prepared by the method of Example 1, the inventors first measured the minimal inhibitory concentration (MIC) that is the minimum concentration of the peptide for the strain to remain as not-decomposed.
(§2) Particularly, to measure the antibacterial activity, the standard strains were obtained. For example, Gram-negative bacteria such as E. coli (KCTC 1682) and Pseudomonas aeruginosa (KCTC 1637), and Gram-positive bacteria such as Staphylococcus aureus (KCTC […]) and Bacillus subtilis (KCTC 1918) were provided from Gene Bank, Korea Research Institute of Bioscience & Biotechnology. In addition, a variety of the antibiotic-resistant strains such as Staphylococcus aureus (CCARM 3090, 3018, 3114, 3126) and E. coli (CCARM 1229, 1238) were distributed from the culture collection at Ewha Womans University. And Pseudomonas aeruginosa (1034, 3904, 4007, 4891) were obtained from the otitis media patients at Chonnam National University Hospital. Each strain was cultured in LB medium (1% bacto-trypton, 0.5% bacto-yeast extract, 1% NaCl; Sigma, USA) until the strain grew to mid-log phase. The strain was diluted with 1% bacto-peptone medium (Difco, USA) at the density of 5×10^5 cells/100 μl, which was then inoculated in micro-titrate plate (Nunc, USA). The peptide synthesized in Example 1 and the peptides in Table 1 were added to the plate (1/2 dilution from 96 well), followed by culture at 37° C. for 6 hours. OD620 was measured by using micro-titrate plate reader (Merck Elisa reader, Germany) to determine the MIC value of each strain.

E. coli CCARM 1238 = assay: microbe, parasite or virus in culture; type: cell-based, Escherichia coli; conditions: E. coli CCARM 1238, antibiotic-resistant
Source text: as §1, §2

S. aureus CCARM 3126 = assay: microbe, parasite or virus in culture; type: cell-based, Staphylococcus aureus; conditions: S. aureus CCARM 3126, antibiotic-resistant
Source text: as §1, §2

S. aureus CCARM 3090 = assay: microbe, parasite or virus in culture; type: cell-based, Staphylococcus aureus; conditions: S. aureus CCARM 3090, antibiotic-resistant
Source text: as §1, §2

S. aureus CCARM 3018 = assay: microbe, parasite or virus in culture; type: cell-based, Staphylococcus aureus; conditions: S. aureus CCARM 3018, antibiotic-resistant
Source text: as §1, §2

S. aureus CCARM 3114 = assay: microbe, parasite or virus in culture; type: cell-based, Staphylococcus aureus; conditions: S. aureus CCARM 3114, antibiotic-resistant
Source text: as §1, §2

P. aeruginosa 3904 = assay: microbe, parasite or virus in culture; type: cell-based, Pseudomonas aeruginosa; conditions: P. aeruginosa 3904, antibiotic-resistant, from otitis media patients
Source text: as §1, §2

P. aeruginosa 4007 = assay: microbe, parasite or virus in culture; type: cell-based, Pseudomonas aeruginosa; conditions: P. aeruginosa 4007, antibiotic-resistant, from otitis media patients
Source text: as §1, §2

P. aeruginosa 4891 = assay: microbe, parasite or virus in culture; type: cell-based, Pseudomonas aeruginosa; conditions: P. aeruginosa 4891, antibiotic-resistant, from otitis media patients
Source text: as §1, §2

P. aeruginosa 1034 = assay: microbe, parasite or virus in culture; type: cell-based, Pseudomonas aeruginosa; conditions: P. aeruginosa 1034, antibiotic-resistant, from otitis media patients
Source text: as §1, §2

[1] = Cytotoxicity in normal cell line (MTT); type: cell-based, human; conditions: human, HaCaT cells (human keratinocyte cell line), read-out: EC50 (50% cytotoxicity inhibition concentration)
Description: (§3) To investigate whether or not the peptides prepared in Example 1 had cytotoxicity in normal cell line, the inventors investigated cytotoxicity in the human keratinocyte HaCaT cell line (Dr. N E. Fusenig, Heidelberg, Germany).
(§4) Particularly, human keratinocyte HaCaT cells were cultured in DMEM (Dulbecco's Modified Eagle's Medium) supplemented with 10% FBS (Fetal Bovine Serum), which were then distributed in a 96-well plate at the density of 2×10^4 cells/well, followed by further culture for 24 hours. The peptides prepared in Example 1 were treated at different concentrations, followed by reaction in a 5% CO2 incubator for 24 hours. Upon completion of the culture, 20 μl of phosphate buffered saline (PBS) wherein MTT (Thiazolyl Blue Tetrazolium Bromide) was dissolved at the concentration of 5 mg/ml was added to each well, followed by culture for 4 hours. The supernatant was discarded. Then, the generated MTT crystal was dissolved in 200 μl of DMSO. OD560 was measured.

[2] = system: human keratinocyte HaCaT cell line; assay: Cytotoxicity in normal cell line (MTT); type: cell-based; conditions: HaCaT cells, 24 hours
Description: as §3, §4

human erythrocytes = assay: Hemolytic activity; type: cell-based; conditions: for HC10 / HC50: human erythrocytes 8% in PBS, 37° C., 1 hour; for HC10: first value of HC10/HC50 cell; for HC50: second value of HC10/HC50 cell; for hemolytic activity: human erythrocytes, up to 800 μM peptide
Description: To investigate whether or not the peptide HPA3P2 that has the folding structure as prepared in Example 1 had cytotoxicity, the hemolytic activity of the peptide having the folding structure was measured.
Particularly, human erythrocytes were diluted in PBS (pH 7.0) at the concentration of 8%, to which the peptides represented by SEQ. ID. […] Then, centrifugation was performed at 1,000 g. Hemoglobin included in the supernatant was measured by measuring OD414. To compare and measure the level of cell destruction, 1% triton X-100 (Sigma, USA) was added to the human erythrocytes, and then OD of the supernatant was measured. The cell destruction capacity of the said 1% triton X-100 was considered as 100%, based on which the erythrocyte destruction capacity of each peptide including the peptide of the invention and the peptides listed in Table 1 was calculated by the below mathematical formula 1. % hemolysis=(ODA−ODB/ODC−ODB)×100 [Mathematical Formula 1] In the above mathematical formula 1, ODA is the OD of the peptide solution measured at 414 nm, and ODB is the OD of PBS measured at 414 nm, and ODC is the OD of 1% triton X-100 measured at 414 nm.

E. coli (KCTC 1682) = type: cell-based; conditions: Escherichia coli KCTC 1682; 37° C., 6 hours, OD620
Source text: as §1, §2

[3] = system: Bacillus subtilis (KCTC 1918); type: cell-based; conditions: 37° C., 6 hours, OD620
Source text: as §1, §2

[4] = system: Staphylococcus aureus (KCTC 1637); type: cell-based; conditions: 37° C., 6 hours, OD620
Source text: as §1, §2

[5] = system: Pseudomonas aeruginosa (KCTC 1637); type: cell-based; conditions: 37° C., 6 hours, OD620
Source text: as §1, §2

E. coli cells = assay: SYTOX-Green fluorescence intensity in E. coli; type: cell-based; conditions: E. coli 2×10^7 cells/ml, 1 μM SYTOX-Green, over time and peptide concentration
Description: The SYTOX-Green fluorescence and luminous intensity of the peptide prepared in Example 1 were measured over the time.
Particularly, E. coli cells were cultured in LB medium at 37° C. The cells were diluted in 10 mM sodium phosphate buffer at the density of 2×10^7 cells/ml. 1 μM of SYTOX-Green was treated to the cells, followed by reaction in a dark incubator for 15˜20 minutes. The comparative peptides (HPA3P(A) and Buporin-2(C)), and the experimental peptide HPA3P2(B) were treated at the minimum inhibition concentration. The increasing fluorescence intensity emitted from SYTOX-Green was measured (excitation wavelength: 484 nm, emission wavelength: 520 nm).

Compound | EC10 (10% cytotoxicity inhibition concentration) [2] | HC10 (human erythrocytes) | HC50 (human erythrocytes) | hemolytic activity (human erythrocytes) | MIC Ec (E. coli (KCTC 1682)) | MIC Bs [3] | MIC Sa [4] | MIC Pa [5] | MIC (E-coli CCARM 1229) | MIC (E. coli CCARM 1238) | MIC (P. aeruginosa 3904) | MIC (P. aeruginosa 4007) | MIC (P. aeruginosa 4891) | MIC (P. aeruginosa 1034) | MIC (S. aureus CCARM 3126) | MIC (S. aureus CCARM 3090) | MIC (S. aureus CCARM 3018) | MIC (S. aureus CCARM 3114) | other results
CC1(C)S[C@@H]2[C@H](NC(=O)[C@H](N)c3ccccc3)C(=O)N2[C@H]1C(=O)O [Ampicillin] |  |  |  |  |  |  |  |  |  |  |  |  |  |  |  |  |  |  | MIC (E-coli CCARM 1229; Escherichia coli, CCARM1229, read-out: MIC): > 800 µM; MIC (E. coli CCARM 1238; Escherichia coli, CCARM1238, read-out: MIC): > 800 µM
CC[C@H]1OC(=O)[C@H](C)[C@@H](O[C@H]2C[C@@](C)(OC)[C@@H](O)[C@H](C)O2)[C@H](C)[C@@H](O[C@@H]2O[C@H](C)C[C@H](N(C)C)[C@H]2O)[C@](C)(O)C[C@@H](C)C(=O)[C@H](C)[C@@H](O)[C@]1(C)O [Erythromycin] |  |  |  |  |  |  |  |  |  |  |  |  |  |  |  |  |  |  | MIC (S. aureus CCARM 3126; Staphylococcus aureus, CCARM3126): > 800 µM; MIC (S. aureus CCARM 3090; Staphylococcus aureus, CCARM3090): > 800 µM; MIC (S. aureus CCARM 3018; Staphylococcus aureus, CCARM3018): > 800 µM; MIC (S. aureus CCARM 3114; Staphylococcus aureus, CCARM3114): > 800 µM
CCN1CCN(C(=O)N[C@@H](C(=O)N[C@@H]2C(=O)N3[C@@H]2SC(C)(C)[C@@H]3C(=O)O)c2ccccc2)C(=O)C1=O [Piperacillin] |  |  |  |  |  |  |  |  |  |  |  |  |  |  |  |  |  |  | MIC (P. aeruginosa 3904; Pseudomonas aeruginosa): > 400 µM; MIC (P. aeruginosa 4007; Pseudomonas aeruginosa): > 400 µM; MIC (P. aeruginosa 4891; Pseudomonas aeruginosa): > 400 µM; MIC (P. aeruginosa 1034; Pseudomonas aeruginosa): > 400 µM
AKKVFKRLPKLFSKIWNWK-NH2 [HPA3P, AKKVFKRLPKLFSKIWNWK-NH2] | 151.1 µM and 151.5 µM | >800/>800 μM | >800/>800 μM | not observed | 1 µM | 2 µM | 16 µM | 8 µM | 0.5 to 1 µM | 0.5 to 1 µM | 1 µM | 1 µM | 1 µM | 1 µM | 1 µM | 1 µM | 1 µM | 1 µM | EC50 at 24 h [1]: 381 µM
AKKVFKRLPKLPSKIWNWK-NH2 [HPA3P2, AKKVFKRLPKLPSKIWNWK-NH2] | 180.5 µM | >800/>800 μM | >800/>800 μM | not observed | 16 µM | >64 µM | >64 µM | 16 µM | 0.5 to 1 µM | 0.5 to 1 µM | 1 µM | 1 µM | 1 µM | 1 µM | 1 µM | 1 µM | 1 µM | 1 µM | 
buforin-2 |  |  |  |  |  |  |  |  |  |  |  |  |  |  |  |  |  |  | change of SYTOX-Green fluorescence intensity (E. coli cells): the fluorescence intensity is changed
